For one data set, the system named is pFRS2a. Nature of the data set: Western blot of pFRS2a in LU99 cell lysate (90 hours treatment). Format: cell-based. Conditions: LU99 cells. From the text:
FGFR1 and downstream activation marker pFRS2a protein levels were examined in indicated cell lines, as well as markers for epithelial-like cells (E-cadherin) and mesenchymal-like cells (Vimentin).

Another data set deals with SW-837. Put plainly: 5-day Cell Titer Glo combination matrix, Bliss score. Type of data set: cell-based. To be noted: SW837 (CRC, Epithelial); FGFR inhibitor in combination with MRTX849; 5 days. On the technique in general: ATP-based viability assays read luminescence as a measure of living cells.
The next data set concerns HCC-44. Described as above. Type of data set: cell-based. To be noted: HCC44 (Lung, Mesenchymal); FGFR inhibitor in combination with MRTX849; 5 days.
For a further data set, the system named is SW-1573. The description is as above. Type of data set: cell-based. Conditions: 5 days.
Another data set has as its system H1792. The data set is described as above. Format: cell-based. To be noted: H1792 (Lung, Mesenchymal), 5 days.
The next data set concerns LU-99. Described as above. Conditions: 5 days. Type of data set: cell-based.
Another data set has as its system H2122. The data set is described as above. Type of data set: cell-based. Conditions: H2122 (Lung, Epithelial); FGFR inhibitor in combination with MRTX849; 5 days.
Data set [1] has as its system MiaPaca2 KRAS G12C resistant clone 28. Put plainly: 5-day Cell Titer Glo viability and Bliss score. Format: cell-based. Conditions: 5-day CTG. As for the experimental part:
(§1) For G12C resistant clone generation, MiaPaca2 parent cells were cultured with increasing concentrations of AMG510 (up to 1μM) over time. The viable cells were re-fed fresh media containing AMG510 weekly. Once the AMG510 resistant cells were growing at normal rates in the presence of 1μM AMG510, they were cloned by limiting dilution. Eight clones were selected for continued passage and further experiments.

Data set [2] concerns MiaPaca2 KRAS G12C resistant clone 7. Put plainly: 5-day Cell Titer Glo viability and Bliss score. Format: cell-based. Conditions: 5-day CTG; for % viability, Pemi 1 μM: Pemi alone. Here is the method: as §1
For data set [3], the system named is LU99 lung cancer xenograft. Nature of the data set: LU99 xenograft model, tumor growth inhibition. Type of data set: in vivo. To be noted: NCr nude mice; AMG510 20 mg/kg, pemigatinib 0.3 mg/kg, alone or combined; oral QD, 30 days; last day of treatment. Here is the method:
The in vivo effect of combining the FGFR1 inhibitor pemigatinib plus the KRAS G12C inhibitor AMG510 was assessed in the LU99 lung cancer model (JCRB0080, JCRB) xenograft model (FIG. 3) in 6 to 8 week old female NCr nude mice (Taconic). Pemigatinib and AMG510 were suspended in 5% N,N-dimethyl acetamide (DMAC)+50 mM Citrate buffer (pH 3.0) in 0.5% methyl cellulose for oral administration. Briefly, mice were inoculated in the left flank with 1×10^7 LU99 cells re-suspended in a PBS and matrigel (Corning Life Sciences, Tewksbury, Mass) solution at 1:1. On Day 7, mice were randomized into 4 groups of 10 mice at approximate mean volume (˜212 mm^3). […] Tumor growth inhibition was calculated using the formula (1−(VT/VC))×100, where VT is the tumor volume of the treatment group on the last day of treatment, and Vc is the tumor volume of the control group on the last day of treatment. […] Statistics were determined using One-Way ANOVA.
Briefly, mice were inoculated in the left flank with 1×10^7LU99 cells re-suspended in a PBS and matrigel (Corning Life Sciences, Tewksbury, Mass) solution at 1:1. […] TGI was calculated using the formula (1−(VT/VC))×100, where VT is the tumor volume of the treatment group on the last day of treatment, and VC is the tumor volume of the control group on the last day of treatment. […]

Where [4] appears, read: Average, G12C i 111 nM + Pemi 1 μM.

Each structure is given as a SMILES string. Several values for one entry are separate records, joined by “and”; a condition that tells them apart may be missing. Equal values may be shown once.

Experimental for H1792: (§2) Cells were seeded in RPMI medium with 10% HI FBS at a density of 500 cells/well in Greiner, white, clear bottom, 384-well tissue culture treated plates containing 10×10 combination matrices of compound. Plates were incubated at 37° C., 5% CO2 for 5 days. On day 5, Cell Titer Glo reagent was added to the plates and ATP luminescence was detected using a Pherastar FSX reader. The synergy score for the combination effect was calculated using a Bliss score model where the Bliss score=Yab-(Ya+Yb−(YaYb))×100, where Ya and Yb are the monotherapies. Bliss scores >20 are strongly synergistic and a higher Bliss scores indicates a higher level of synergism.
(§3) Cells were seeded in RPMI medium with 10% HI FBS at a density of 500 cells/well in Greiner, white, clear bottom, 384-well tissue culture treated plates containing 10×10 combination matrices of compound. Plates were incubated at 37° C., 5% CO2 for 5 days. On day 5, Cell Titer Glo reagent was added to the plates and ATP luminescence was detected using a Pherastar FSX reader. Synergy score for the combination effect is calculated using a Bliss score model where the Bliss score=Yab−(Ya+Yb−(YaYb))×100, where Ya and Yb are the monotherapies. Bliss scores >20 are strongly synergistic and a higher Bliss scores indicates a higher level of synergism.
(§4) Cells were seeded in RPMI medium with 10% HI FBS at a density of 500 cells/well in Greiner, white, clear bottom, 384-well tissue culture treated plates containing 10×10 combination matrices of compound. Plates were incubated at 37° C., 5% CO2 for 5 days. On day 5, Cell Titer Glo reagent was added to the plates and ATP luminescence was detected using a Pherastar FSX reader. The synergy score for the combination effect was calculated using a Bliss score model where the Bliss score=Yab−(Ya+Yb−(YaYb))×100, where Ya and Yb are the monotherapies. Bliss scores >20 are strongly synergistic and a higher Bliss scores indicates a higher level of synergism.
Experimental for H2122: as §4
Experimental for HCC-44: as §2, §4
Experimental for LU-99: as §3, §4
Experimental for SW-1573: as §2, §3, §4
Experimental for SW-837: as §2, §4

For `CCN1C(=O)N(c2c(F)c(OC)cc(OC)c2F)Cc2cnc3[nH]c(CN4CCOCC4)cc3c21` [Pemigatinib, 3-(2,6-difluoro-3,5-dimethoxyphenyl)-1-ethyl-8-(morpholin-4-ylmethyl)-1,3,4,7-tetrahydro-2H-pyrrolo[3′,2′:5,6]pyrido[4,3-d]pyrimidin-2-one], the “pFRS2a level, FGFR inhibitor in combination with KRAS inhibitor MRTX849” value in the data set on pFRS2a (50 nM MRTX849, pemigatinib 0.5 μM) is recorded as “inhibited the pFRS2a level”. In addition, the “pFRS2a level, FGFR inhibitor in combination with KRAS inhibitors” value with pFRS2a (with 50 nM AMG510 or Compound 2) is given as “inhibited the pFRS2a level”. Further, the “Avg. Bliss Score” value in the data set on SW-837 worked out at 6.1; in the data set on HCC-44 it was 11.6; in the data set with SW-1573 (SW1573 (Lung, Mesenchymal), FGFR inhibitor in combination with MRTX849) it was 29.5; in the data set with SW-1573 (SW-1573 (Lung, Mesenchymal), FGFR inhibitor in combination with Cmpd 3), 19.3; with H1792 (FGFR inhibitor in combination with Cmpd 3) it was 24.2; in the data set with H1792 (FGFR inhibitor in combination with MRTX849) it was 19.9. Further, the “Avg. Bliss Score” value in the data set on LU-99 (LU-99 (Lung, Mesenchymal), FGFR inhibitor in combination with Cmpd 3) is recorded as 44.8; with LU-99 (Lu99 (Lung, Mesenchymal), FGFR inhibitor in combination with MRTX849), 37.4; in the data set on H2122, 4.5. Further, the “% viability, Together” value was 32.4% in [1] (G12C i 111 nM + Pemi 1 μM); 54.6% in data set [2] (setting [4]); 63% and 53% and 47.7% in data set [2] (G12C i 111 nM + Pemi 1 μM, single experiments). For the same compound, the results for the “BLISS Score” value in data set [1] (G12C i 111 nM + Pemi 1 μM) and in [2] (setting [4]) were 21.8 and 15.0, respectively. The “% viability, Pemi 1 μM” value was 78% in data set [1] (Pemi alone); 101.1% in data set [2] (Average); 104% and 106% and 93.4% in data set [2] (single experiments). In [3], the “TGI (tumor growth inhibition)” value is listed as 63%.

(Values after US20230226040A1, “COMBINATION THERAPY COMPRISING AN FGFR INHIBITOR AND A KRAS INHIBITOR” (Incyte Corporation, priority 2021, published 2023).)
